This is an account of results in patent publication US20250332265A1, “PSMA TARGETED CONJUGATE COMPOUNDS AND USES THEREOF” (priority 2021, published 2025).

SMILES strings stand for the structures.

For data set [1], the system named is PC3pip and PC3flu tumors. Description: In vivo fluorescence imaging studies, heterotopic tumors. Also on record: species or system mice. The procedure: Animal experiments were approved by the animal care and use committee at Case Western Reserve University (IACUC #150033). Six to eight-week-old male Balb/c athymic nude mice (Jackson Laboratory, Bar Harbor, ME) were implanted subcutaneously with 1×10^6 of PC3pip (right flank) and PC3flu (left flank) cells in 100 μl of matrigel. Animals were ready to use when tumor diameter reached 10 mm, about two weeks. Animals received 100 nmol/kg of PSMA-1-MMAE-IR700 through tail vein injection and were imaged at different time points by Maestro In vivo Image System (Perkin Elmer, Waltham, MI) using the yellow filter set (excitation 575-605 nm, emission 645 nm longpass). During imaging, mice were anesthetized by isoflurane. At 48 h post injection, mice were sacrificed and tissues such as heart, lung, liver, kidneys, stomach, tumors were harvested for ex vivo imaging. Multispectral images were unmixed into their component spectra and average fluorescence signals were quantified by creating regions of interest. Experiments were performed in 5 mice.

In data set [2] the test system is PC3pip tumors. Nature of the data set: Immunofluorescent detection of apoptosis (caspase-3, H&E). Type of data set: in vivo, mice. As to conditions: single dose, four days after the treatment. From the text:
Animals bearing PC3pip tumors were divided into 7 groups: (1) mice receiving PBS; (2) mice receiving 100 nmol/kg PSMA-1-MMAE-IR700 with PDT; (3) mice receiving equal doses of PSMA-1-MMAE-IR700 to group 2, but not receiving PDT; (4) Mice receiving equal doses of PSMA-1-IR700 to group 2 with PDT treatment; (5) Mice receiving equal doses of PSMA-1-IR700 to group 2 without PDT; (6) mice receiving equal dose of PSMA-1-IR700 to group 2+free MMAE with PDT (MMAE normalized to that delivered by PSMA-1-MMAE-IR700); and (7) mice receiving equal dose of PSMA-1-IR700 to group 2+free MMAE without PDT. Animals were treated with one single dose and were sacrificed at 4-day post treatment. Tumors were snap-frozen in OCT, cut into 10 μm thick sections and fixed on slides. Induction of apoptosis by the treatment was determined by rabbit polyclonal anti-Caspase-3 antibody (Abcam, Cambridge, UK). A goat anti-rabbit polyclonal antibody labeled by Alexa Fluor-594 was used as secondary antibody (Abcam, Cambridge, UK). The presence of apoptosis was determined by fluorescence images under Leica DM4000B fluorescence microscope at 10×. H&E staining of tumor tissues was performed in adjacent sections to check the histology of the tumors. Experiments were repeated in 5 mice.

The test system of data set [3] is PSMA-negative PC3flu cells. Description: In vitro cytotoxicity studies (CellTiter 96) with or without 690 nm light, PC3flu. In kind it is cell-based, human. The procedure: PC3pip and PC3flu cells were plated at 3,000 cells/well in 96-well plates. Twenty-four hours later, drugs (PSMA-1-MMAE-IR700 or PSMA-1-IR700) of different concentrations were added. After incubation at 37° C. in the dark for 24 h, cell viability was determined by CellTiter 96© aqueous one solution cell proliferation assay using absorbance at 490 nm (Promega Biotech, Madison, […]). The concentration required to inhibit 50% of cell growth (IC50) was determined by GraphPad Prism 3.0. To test the cytotoxicity of PSMA-1-MMAE-TR700 with light irradiation, drugs at a final concentration of 5 nM were added to cells and incubated in the dark for 24 h. Cells were then washed 3 times with RMPI 1640 and then irradiated with 690 nm light (L690-66-60, Marubeni America Co, New York, NY). Cells were incubated in the dark for another 24 h. Cell viability was then determined by CellTiter 96© aqueous one solution cell proliferation assay (Promega Biotech, Madison, […]). The coefficient drug interaction (CDI) was calculated as follows: CDI=AB/(A×B), where AB is the ratio of the absorbance of combination treatment groups (PSMA-1-MMAE-IR700 with light irradiation) to the absorbance of control groups; A or B is the absorbance of single treatment group (PSMA-1-MMAE-IR700 without light or PSMA-1-IR700 with light irradiation) to the absorbance of control groups. […]

Data set [4] in a line: In vitro cytotoxicity studies (CellTiter 96) with or without 690 nm light, PC3pip. Type of data set: cell-based, human. Particulars: 24 h in the dark, no light; read-out: IC50 dark cytotoxicity, PC3pip cells. The procedure:
(§1) PC3pip and PC3flu cells were plated at 3,000 cells/well in 96-well plates. Twenty-four hours later, drugs (PSMA-1-MMAE-IR700 or PSMA-1-IR700) of different concentrations were added. After incubation at 37° C. in the dark for 24 h, cell viability was determined by CellTiter 96© aqueous one solution cell proliferation assay using absorbance at 490 nm (Promega Biotech, Madison, […]). The concentration required to inhibit 50% of cell growth (IC50) was determined by GraphPad Prism 3.0. To test the cytotoxicity of PSMA-1-MMAE-TR700 with light irradiation, drugs at a final concentration of 5 nM were added to cells and incubated in the dark for 24 h. Cells were then washed 3 times with RMPI 1640 and then irradiated with 690 nm light (L690-66-60, Marubeni America Co, New York, NY). Cells were incubated in the dark for another 24 h. Cell viability was then determined by CellTiter 96© aqueous one solution cell proliferation assay (Promega Biotech, Madison, […]). The coefficient drug interaction (CDI) was calculated as follows: CDI=AB/(A×B), where AB is the ratio of the absorbance of combination treatment groups (PSMA-1-MMAE-IR700 with light irradiation) to the absorbance of control groups; A or B is the absorbance of single treatment group (PSMA-1-MMAE-IR700 without light or PSMA-1-IR700 with light irradiation) to the absorbance of control groups. CDI <1, =1 and >1 indicates synergistic, additive or antagonistic effect.

Data set [5] has as its system PSMA-positive PC3pip cells. The data set is described as above. Type of data set: cell-based, human. As to conditions: for ratio of absorbance to control groups (cell viability): 5 nM, 24 h. Here is the method:
as §1

Data set [6] deals with orthotopic PC3pipGFP tumors. Description: Detection of orthotopic tumor and lymph node metastases. Particulars: 100 nmol/kg, 1 h post injection. In kind it is in vivo, mice. The procedure:
Orthotopic PC3pipGFP prostate cancer models were established as previously described using green fluorescence protein (GFP) transfected PC3pip cells. Mice bearing orthotopic PC3pipGFP tumors were injected with 100 nmol/kg of PSMA-1-MMAE-IR700. Mice were imaged at 1 h post injection by Maestro using the yellow filter set for PSMA-1-MMAE-IR700 and blue filter set for GFP (excitation 445-490 nm, emission 515 nm longpass). Mice were then euthanized and primary tumor was removed to expose lymph nodes. The mice were imaged again. Resected primary tumor and lymph nodes were snap-frozen in optimal cutting temperature (OCT) compound and sectioned. The slides were subjected to hematoxylin and eosin (H&E) staining, and adjacent set of slides were counter stained with DAPI and observed under Leica DM4000B fluorescence microscope at 10× to visualize DAPI, GFP and PSMA-1-MMAE-IR700. Experiments were repeated in three mice.

The mark [7] stands for this setting: 4 h post injection, 100 nmol/kg.
Setting [8] is: 48 h post injection, 100 nmol/kg.

Turning to `CC[C@H](C)[C@@H]([C@@H](CC(=O)N1CCC[C@H]1[C@H](OC)[C@@H](C)C(=O)N[C@H](C)[C@@H](O)c1ccccc1)OC)N(C)C(=O)[C@@H](NC(=O)[C@H](C(C)C)N(C)C(=O)OCc1ccc(NC(=O)[C@H](CCCNC(N)=O)NC(=O)[C@@H](NC(=O)CCCCCN2C(=O)CC(SC[C@H](NC(=O)[C@H](CCC(=O)O)NC(=O)[C@H](CCC(=O)O)NC(=O)[C@H](CCC(=O)O)NC(=O)CCCCCNC(=O)[C@H]3CC[C@H](CNC(=O)CC[C@H](NC(=O)N[C@@H](CCC(=O)O)C(=O)O)C(=O)O)CC3)C(=O)NCCCCCC(=O)N[C@@H](CCCCNC(=O)CCCCCNC(=O)OCCCOc3cccc4c5n6c(c34)=NC3=NC(=Nc4c7ccccc7c(n4[Si]6(O[Si](C)(C)CCC[N+](CCCS(=O)(=O)[O-])(CCCS(=O)(=O)O)CCCS(=O)(=O)O)O[Si](C)(C)CCC[N+](CCCS(=O)(=O)[O-])(CCCS(=O)(=O)O)CCCS(=O)(=O)O)N=C4N=C(N=5)c5ccccc54)c4ccccc43)C(N)=O)C2=O)C(C)C)cc1)C(C)C` (stereo partly shown) [PSMA-1-MMAE-IR700], the “time to reach peak uptake in PC3pip tumors” value in data set [1] (100 nmol/kg i.v.) stood at 1 h. Further, the entries for the “fluorescence signal PC3pip versus PC3flu tumor” value in data set [1] (4 h post injection) and in data set [1] (48 h post injection) were 3.8 fold and 2.9 fold, respectively. For the same compound, in data set [1] (setting [7]), the “fluorescence signal in PC3flu tumor” value is on record as 5.2±1.5 counts. Besides, the “fluorescence signal in PC3pip tumor” value in data set [1] (setting [7]) is 19.6±4.4 counts. For the same compound, in data set [1] (setting [8]), the “fluorescence signal in PC3flu tumors” value is on record as 3.3±1.3 counts. Further, the “fluorescence signal in PC3pip tumors” value in data set [1] (setting [8]) came to 9.6±2.1 counts. The “fluorescent signal in PC3pip tumor versus kidneys, liver and other organs” value in data set [1] (ex vivo, 48 h post injection) is on record as “more than 3 fold”. Besides, the “apoptosis / necrotic damage in tumors, with PDT” value in data set [2] is “most aggressive necrotic damage and apoptosis”. The “cell killing in PC3flu cells” value in data set [3] (5 nM, with or without light) was “no effective cell killing”. Moreover, the “IC50 dark cytotoxicity, PC3flu cells” value in data set [3] (24 h in the dark, no light) is listed as “no IC50 value was obtained”. For the same compound, in data set [4], the 50% inhibitory concentration (IC50) (commonly the concentration needed to halve the response being measured) was found to be 8.42 ± 1.03 nM. Also, the “ratio of absorbance to control groups (cell viability)” value in data set [5] (690 nm light 1 J/cm2) was 0.423; in data set [5] (690 nm light 3 J/cm2) it was 0.208; in data set [5] (without light), 0.892. The “coefficient drug interaction (CDI)” value in data set [5] (1 J/cm2 light irradiation) turned out to be 0.609; in data set [5] (3 J/cm2 light irradiation), 0.550. Besides, the “selectivity of killing PC3pip versus PC3flu cells” value in data set [5] (72 h in the dark) worked out at 50 fold. The “fluorescence signal in primary tumor and lymph node histology” value in data set [6] is “only observed in cancer tissues”.
